According to US6825233B2, “Compounds having retinoid-like activity” (Bristol-Myers Squibb Company, priority 2001, dated 2004):
Like-named read-outs stand apart in the source and are kept apart here.

Key:
HT3 = assay: Growth assay, [3H]-thymidine incorporation, HT3; format: cell-based; settings: Homo sapiens
Procedure: (§1) Principle of the assay: The proliferation of the cells was measured by the incorporation of [^3H]-Thymidine in the DNA of dividing cells.
(§2) Protocol: The number of cells which was plated has been primarily defined to avoid the cells reaching confluence before the end of the experiment duration (T47D & HT3, 750 cells/well; H3396, 200 cells/well of 96 well plates). The first day, the cells were plated in 96 well plates and incubated overnight at 37° C. (in […]; CO2, 5%), allowing the cells adhering to the support. The next day, the compounds were added to the cells and incubated for 3 or 6 days (note: for the 6-day incubation, the medium was replaced at Day3). At the end of the treatment, 10 μl of [^3H]-thymidine (final concentration of 0.4 μCi/well) were added for 4 hours at 37° C., the medium was finally removed, the cells trypsinized and harvested under vacuum on GF/B glass fiber filters. After 3 washes with distilled water, the filter were dried and counted in a scintillation counter after adding 50 μl of Microscint (Packard) to each filter. The percentage of growth inhibition was calculated by using DMSO as reference, which is the vehicle of the compounds. Growth inhibition is reported as IC50's in nM

RARα = target: T1, RARα (Homo sapiens, UniProt P10276); assay: Competition binding assay using Yttrium SPA beads, RARα
T1 construct: made in house; host or cells: E. coli BL21 (DE3)
T1 sequence (P10276 183-417 limits assumed): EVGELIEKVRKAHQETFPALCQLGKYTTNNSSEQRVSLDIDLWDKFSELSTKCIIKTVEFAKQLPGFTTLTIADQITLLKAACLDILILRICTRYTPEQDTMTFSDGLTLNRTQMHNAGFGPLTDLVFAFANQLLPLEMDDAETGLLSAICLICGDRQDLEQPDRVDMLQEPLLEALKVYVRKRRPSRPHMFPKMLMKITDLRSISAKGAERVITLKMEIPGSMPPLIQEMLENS

GAL-RARα = target: T2, GAL-RARα (Homo sapiens, UniProt P10276); assay: Transactivation assay, HeLa cells with GAL-RARα and (17 mer)x5-Glob-Luc reporter; format: cell-based; settings: stable HeLa cell line, luciferase reporter, 24 hours
T2 construct: expressed in transfected cells
T2 sequence (P10276 183-417 limits assumed): T1 sequence (P10276 183-417 limits assumed)

GAL-RARβ = target: T3, GAL-RARβ (Homo sapiens, UniProt P10826); assay: Transactivation assay, HeLa cells with GAL-RARβ and (17 mer)x5-Glob-Luc reporter; format: cell-based; settings: stable HeLa cell line, luciferase reporter, 24 hours
T3 construct: expressed in transfected cells
T3 sequence (P10826 183-417 limits assumed): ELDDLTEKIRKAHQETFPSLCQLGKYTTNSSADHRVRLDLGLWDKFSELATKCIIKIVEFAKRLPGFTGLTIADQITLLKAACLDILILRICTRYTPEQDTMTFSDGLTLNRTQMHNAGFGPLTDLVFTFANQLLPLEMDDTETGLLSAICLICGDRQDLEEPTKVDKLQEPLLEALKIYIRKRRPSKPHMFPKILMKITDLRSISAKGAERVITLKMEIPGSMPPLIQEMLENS

RARβ = target: T4, RARβ (Homo sapiens, UniProt P10826); assay: Competition binding assay using Yttrium SPA beads, RARβ
T4 construct: made in house; host or cells: E. coli BL21 (DE3)
T4 sequence (P10826 183-417 limits assumed): T3 sequence (P10826 183-417 limits assumed)

T47D = assay: Growth assay, [3H]-thymidine incorporation, T47D; format: cell-based; settings: Homo sapiens, T47D cells, 3 or 6 days incubation, read-out: Cell Growth Inhibition (IC50, nM) T47D
Procedure: as §1, §2

GAL-RARγ = target: T5, GAL-RARγ (Homo sapiens, UniProt P13631); assay: Transactivation assay, HeLa cells with GAL-RARγ and (17 mer)x5-Glob-Luc reporter; format: cell-based; settings: stable HeLa cell line, luciferase reporter, 24 hours
T5 construct: expressed in transfected cells
T5 sequence (P13631 185-419 limits assumed): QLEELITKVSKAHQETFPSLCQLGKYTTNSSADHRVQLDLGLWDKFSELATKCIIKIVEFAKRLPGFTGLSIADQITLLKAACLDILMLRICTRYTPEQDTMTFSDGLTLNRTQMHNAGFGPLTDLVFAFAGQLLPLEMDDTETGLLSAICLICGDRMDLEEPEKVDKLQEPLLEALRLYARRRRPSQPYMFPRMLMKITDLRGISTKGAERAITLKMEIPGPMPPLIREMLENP

RARγ = target: T6, RARγ (Homo sapiens, UniProt P13631); assay: Competition binding assay using Yttrium SPA beads, RARγ
T6 construct: made in house; host or cells: E. coli BL21 (DE3)
T6 sequence (P13631 185-419 limits assumed): T5 sequence (P13631 185-419 limits assumed)

[1] = HT-3, HT3 cells, [3H]-thymidine incorporation, 3 or 6 days incubation, read-out: Cell Growth Inhibition (IC50, nM) HT3

Row | Kd (RARα) | EC50 (GAL-RARα) | EC50 (GAL-RARβ) | Kd (RARβ) | IC50 (T47D) | EC50 (GAL-RARγ) | Kd (RARγ) | SMILES | IC50 (HT3; [1]) | IC50 (HT3; HT-3, read-out: Cell Growth Inhibition (IC50, nM) HT3)
1 | 8.3 nM | 13.5 nM | 1.76 nM | 18.6 nM | 4.8 nM | 47 nM | 52.8 nM | CC1(C)Cc2ccc(O)cc2-c2cc(/C=C/c3ccc(C(=O)O)cc3)ccc21 [Compound 8] | 1160 nM | –
2 | 1.1 nM | 0.02 nM | 0.005 nM | 1.6 nM | < 0.01 nM | 1.9 nM | 10.6 nM | COc1ccc2c(c1)-c1cc(/C=C/c3ccc(C(=O)O)cc3)ccc1C(C)(C)C2 [Compound 10] | < 0.01 nM | –

Row | SMILES | Kd (RARα) | EC50 (GAL-RARα) | EC50 (GAL-RARβ) | Kd (RARβ) | IC50 (T47D) | EC50 (GAL-RARγ) | Kd (RARγ) | IC50 (HT3; [1]) | IC50 (HT3; HT-3, read-out: Cell Growth Inhibition (IC50, nM) HT3)
3 | CC1=C(/C=C/C(C)=C/C=C/C(C)=C/C(=O)O)C(C)(C)CCC1 [Retinoic acid, reference compound] | – | – | – | – | 6.5 nM | – | – | – | 1 nM
